The target in this assay is Nicotinamide phosphoribosyltransferase (Homo sapiens, UniProt P43490). Description: Measurement of NamPT Inhibitory Ability IC50. Here is the method: To test the effect of the compound prepared in each Example on the substrate decomposition rate (Vmax/min) mediated by NamPT enzyme, IC50 was calculated. In this experiment, the NamPT colorimetric assay kit (ab221819) produced by Abcam was used, and Graph prism software was used for IC50 calculation. PRPP, ATP, NMNAT1, NamPT recombinant proteins, and various concentrations of the compound of each Example (half-log step dilution from 100 μM) were added to nicotinamide to synthesize nicotinamide adenine dinucleotide (NAD) from the nicotinamide, and a total of 60 μL of the reaction solution was reacted at room temperature for 1 hour. WST-1 formazan converted by NAD generated by adding WST-1 was measured. The result of the reaction was obtained by the following formula by measuring absorbance using EnVision2105 (PerkinElmer) at 450 nm for 60 minutes at 2-minute intervals.
Sequence of Nicotinamide phosphoribosyltransferase (P43490 whole entry): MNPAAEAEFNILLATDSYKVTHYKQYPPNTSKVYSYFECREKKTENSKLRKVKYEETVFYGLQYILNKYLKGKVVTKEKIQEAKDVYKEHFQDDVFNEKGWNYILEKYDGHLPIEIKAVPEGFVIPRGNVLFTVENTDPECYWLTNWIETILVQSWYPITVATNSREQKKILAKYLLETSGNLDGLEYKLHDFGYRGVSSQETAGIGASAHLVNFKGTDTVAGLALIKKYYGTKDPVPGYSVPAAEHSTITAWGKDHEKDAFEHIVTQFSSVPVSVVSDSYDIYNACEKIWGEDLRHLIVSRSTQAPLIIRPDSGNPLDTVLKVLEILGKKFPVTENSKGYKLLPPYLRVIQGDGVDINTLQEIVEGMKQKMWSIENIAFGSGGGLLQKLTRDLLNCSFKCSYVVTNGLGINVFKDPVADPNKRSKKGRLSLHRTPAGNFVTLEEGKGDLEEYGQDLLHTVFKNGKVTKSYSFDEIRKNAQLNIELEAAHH

The source of these data is BindingDB's records for patent US20260022122 (Checkmate Therapeutics, 2026).

Structures are written as SMILES.

For the compound `Cc1ccc2sc(-c3ccc(CNC(=O)c4cnc5nccn5c4)cc3)nc2c1` [US20260022122, Example 48], the IC50 is less than 50 nM.
The figure for `CS(=O)(=O)Nc1ccc2oc(-c3ccc(CNC(=O)c4cnc5nccn5c4)cc3)nc2c1` [US20260022122, Example 47] is less than 50 nM; for `CC(C)c1ccc2nc(-c3ccc(CNC(=O)c4cnc5nccn5c4)cc3)oc2c1` it is less than 50 nM.
